Legend:
blood vessels (RECA-1) = experiment: Blood vessel number and size in striatum (RECA-1 staining) after 6OHDA lesion and treatment; conditions: for number and size of blood vessels in the striatum: 13 weeks after a single treatment, pattern recognition software; for blood vessel numbers or size (undesirable effects, summary): rat, in vivo
Method: Blood vessel counting and area quantitation: Zeiss software was used to identify, count, and measure blood vessels stained for the pan-endothelial marker RECA-1. To measure the average distance between adjacent Hes3+ cells along the same blood vessel, 25 high-power (×63) confocal z-stack images were used from brain sections stained for endothelial markers and Hes3.
6OHDA Lesion. Some animals underwent unilateral lesion of the nigrostriatal dopamine pathway by stereotactical injection of 50 μg 6-hydroxydopamine (6-OHDA) into the right striatum, using the following coordinates: bregma AP +0.5 mm, ML −3.0 mm, VD +5.5 mm.
Pharmacological treatments. Unlesioned animals, or animals two weeks after 6-OHDA lesion, were treated with different pharmacologic agents. Five microliters (μl) of different drugs were stereotactically injected into the right lateral ventricle using the following stereotaxic coordinates: bregma AP −0.9 mm, ML −1.4 mm, VD +3.8 mm. The following reagents were used: Dll4 (2 mg/ml), Ang-2 (1 mg/ml), insulin (8 mg/ml), Jak-Inhibitor (20 μM), either alone or in combination.
In vivo Experiments: Male adult (3-6 months) Sprague Dawley rats (Charles River Laboratories), weighing 250-350 gm, was used for pharmacological treatments and lesion experiments. For 6OHDA Lesion: animals underwent unilateral lesion of the nigrostriatal dopamine pathway by stereotactical injection of 50 μg 6-hydroxydopamine (6-OHDA) into the right striatum, using the following coordinates: bregma AP +0.5 mm, ML −3.0 mm, VD +5.5 mm. For pharmacological treatments: unlesioned animals, or animals two weeks after 6OHDA lesion, were treated with different pharmacologic agents. Five μl of different drugs were stereotactically injected into the right lateral ventricle using the following stereotaxic coordinates: bregma AP −0.9 mm, ML −1.4 mm, VD +3.8 mm. The following reagents were used: Dll4 (2 mg/ml), Ang2 (1 mg/ml), insulin (8 mg/ml), Jak-Inhibitor (20 μM), either alone or in combination. After all surgeries, animals were allowed to recover from the anesthesia and were put back into their home cages, where they were given access to food and water ad libitum. For labeling of dividing cells: Animals received intraperitoneal injection of the tracer bromodeoxyuridine (BrdU) (50 mg/kg) every 12 hours for 5 days beginning on day 1 post-op to label dividing cells. Amphetamine induced rotations: At multiple time points over the course of the experiment, lesioned rats were injected intra-peritoneally with D-Amphetamine sulfate (5 mg/kg) and placed in automated rotometer bowls. Rotational behavior was assessed by monitoring total number of whole body (360°) turns over 60 min.

Hes3+ cells = Hes3+ cells after single intra-ventricular injection; type: in vivo, rat; conditions: for number of Hes3+ cells in the adult striatum and substantia nigra: single intracerebroventricular injection, within 5 days (FIG. 11); for number of stem cells/precursors in the adult brain: summary of in vivo treatments
Method: (§1) Pharmacological treatments.
(§2) Immunohistochemistry: Under deep anesthesia, animals were perfused transcardially with a rinse of saline, followed by 4% formaldehyde fixative (pH 7.4). Brains were removed immediately, stored in the fixative solution overnight and then in 30% sucrose for 3 days. Brains were frozen-sectioned at 16 μm. Immunohistochemical detection of BrdU and Hes3 was performed with an antigen-retrieval step (sections were boiled in 0.02M citrate, pH 6.0 in a microwave for 5 min, washed 3 times with distilled water, and incubated for 45 min in 2M HCl, at room temperature).
(§3) Hes3+ cells in the central nervous system (CNS) parenchyma were characterized and the means to activate the NSC compartment in vivo was investigated. Single injections of pharmacologically active compounds were performed in the lateral ventricle, bromodeoxyuridine (BrdU) was administered intraperitoneally (days 2-4) and the animals were sacrificed on day 5. At the subventricular zone (SVZ), a single intra-ventricular injection of Dll4 induced STAT3-S727 phosphorylation and Hes3 expression within 5 days. […] BrdU+ cell numbers were elevated in all these areas (FIG. 3a).
as §2, with “(Sections” for “(sections”, “minutes,” for “min,”

[1] = test system: dopamine neurons in the substantia nigra; experiment: Fluorogold retrograde labelling of dopamine neurons in the substantia nigra, 6OHDA model; type: in vivo, rat; conditions: for neuroprotective effects on neurons: summary of in vivo treatments; for cell body diameter of TH+/Fluorogold+ cells in the substantia nigra: treatment 2-weeks following 6OHDA lesion, ipsilateral (FIG. 6e)
Method: as §1
(§4) To investigate the clinical potential of this treatment approach, the compounds were used in an animal model of Parkinson's disease. Adult rats were lesioned by intra-striatal 6-OH-DA (Przedborski, S. et al., Neuroscience 67, 631-47, 1995). After two weeks, a single injection of the compounds was administered in the lateral ventricle ipsilateral to the lesion. Amphetamine-induced rotations were measured bi-weekly throughout the experiment. Thirteen weeks after treatment they were given a single injection of fluorogold in the striatum to label the […] dopaminergic projection.

[2] = test system: proliferating (BrdU+) cells; experiment: BrdU+ proliferating cells after single intra-ventricular injection; type: in vivo, rat; conditions: BrdU days 2-4, sacrifice day 5
Method: as §1, §2, §3

TH+ dopaminergic neurons = experiment: Tyrosine hydroxylase immunohistochemistry in striatum and substantia nigra, 6OHDA model; type: in vivo, rat; conditions: % ipsi- vs. contra-lateral TH optical density (FIG. 13b)
Method: as §1, §2, §4
Immunohistochemistry: Under deep anesthesia, animals were perfused transcardially with a rinse of saline, followed by 4% formaldehyde fixative (pH 7.4). […]

[3] = 6OHDA lesioned, striatum, RECA-1 (FIG. 5c)

Substance	number of vessels (blood vessels (RECA-1); [3])	number and size of blood vessels in the striatum (blood vessels (RECA-1))	blood vessel numbers or size (undesirable effects, summary) (blood vessels (RECA-1))	number of Hes3+ cells in the adult striatum and substantia nigra (Hes3+ cells)	number of stem cells/precursors in the adult brain (Hes3+ cells)	neuroprotective effects on neurons [1]	cell body diameter of TH+/Fluorogold+ cells in the substantia nigra [1]	number of proliferating cells in the SVZ [2]	TH+ signal in the lesioned striatum (TH+ dopaminergic neurons)	diameter of the vessels (blood vessels (RECA-1); [3])	STAT3-S727 phosphorylation and Hes3 expression at the subventricular zone (Hes3+ cells; single intra-ventricular injection, within 5 days)	numbers of Hes3+ and Tie-2+ precursor cells in the SVZ (Hes3+ cells; single ventricular injection)	effect on the vasculature (striatum, RECA-1) (blood vessels (RECA-1); 6OHDA lesioned, end of experiment (FIG. 5c))
Ang-2: human angiopoietin-2 (623-AN) from R&D; antagonist for angiopoietin-1 at Tie2	significantly increased	opposing and long-lasting effects	increases the number and size of blood vessels	increased	increase	exert neuroprotective effects	increase	increased	increase	–	–	–	–
Dll4: Notch ligand Delta-like 4; mouse Dll4 (1389-D4) from R&D	–	opposing and long-lasting effects	reduces the number and size of blood vessels	increased	increase	exert neuroprotective effects	–	increased	increase	significantly decreased	induced	rapidly increased	–
insulin: insulin (Sigma, 19278), growth factor	–	–	increases the number of blood vessels adjacent to the injection site	–	increase	exert neuroprotective effects	increase	increased	–	–	–	–	relatively small effect

— US20110105393A1, “METHODS FOR PROMOTING STEM CELL PROLIFERATION AND SURVIVAL” (priority 2007, published 2011)
